Each block holds one compound with its values, some of them ahead of it.
How the values were obtained:
cathepsin X [1] = target: T1, cathepsin X (Mus musculus, UniProt Q9WUU7); experiment: In vivo probe labeling in mice (intravenous), tissues analyzed by fluorescent SDS-PAGE; conditions: intravenous 50 nmol, two hours of circulation
Description: For in vivo labeled tissues, mice were first injected intravenously via the tail vein with sCy5-Nle-SY, BMV109, or sCy5-Nle-AOMK (50 nmol in 100 µl 10% DMSO/PBS or vehicle control). Tissues were harvested and analyzed as above except without further probe addition.
In Example 10, the probe sCy5-Nle-SY, vehicle control/no probe (NP) or BMV109 were injected into mice intravenously. After two hours of circulation, tissues were harvested, lysed, and analyzed for probe labeling by fluorescent SDS-PAGE.
In Example 12, the AOMK probe sCy5-Nle-AOMK was tested in vivo and its labeling in tissues was analyzed. The probe was injected into mice intravenously. After two hours of circulation, tissues were harvested, lysed, and analyzed for probe labeling by fluorescent SDS-PAGE.

cathepsin X [2] = target: T1, cathepsin X; experiment: Probe labeling of mouse splenic lysates (wildtype or cathepsin X-deficient), in-gel fluorescence; type: biochemical; conditions: probe 1 µM for 20 minutes
Description: (§1) issues were harvested from healthy mice and snap frozen. At the time of analysis, lysis buffer was added at 10x volume:weight, and tissues were sonicated on ice. Cleared lysates were labeled with the indicated probe and analyzed as above.
In Example 4, the ability of sCy5-Val-SY to label cathepsin X in mouse splenic lysates (from wildtype mice or cathepsin X-deficient mice) was tested (probe addition at 1 µM for 20 minutes).

cathepsin X [3] = target: T1, cathepsin X; experiment: Inhibition in live RAW264.7 cells, residual activity by sCy5-Val-SY labeling; type: cell-based; design: protein lysates prepared from RAW264.7 cells; host or cells: RAW264.7; conditions: 100 µM overnight pre-treatment, compared to controls
Description: To test the ability of sulfoxonium ylide compounds to act as cathepsin inhibitors, an unlabeled, boc-protected version of Val-SY, i.e. tert-butyl (S)-(1-(dimethyl(oxo)-λ ^6-sulfanylidene)-4-methyl-2-oxopentan-3-yl)carbamate (SJM-724-24) was used. Live RAW264.7 cells were pre-treated with Boc-Val-SY (0, 10 or 100 µM) overnight. Residual cathepsin X activity was measured by incubating the live cells with sCy5-Val-SY for two hours. Cells were lysed and labeled proteins were detected by in-gel fluorescence.

cathepsin S = target: T2, cathepsin S (Mus musculus, UniProt O70370); experiment: as above; type: cell-based; conditions: 100 µM overnight pre-treatment, compared to controls
T2 construct: Live RAW264.7 cells were pre-treated with Boc-Val-SY (0, 10 or 100 µM) overnight; host or cells: RAW264.7

cathepsin X [4] = target: T1, cathepsin X; experiment: Probe labeling of kidney lysates, in-gel fluorescence; type: biochemical; conditions: 0.1-5 µM for 20 minutes
Description: as §1
In Example 7, sulfoxonium ylide probes as prepared in accordance with Example 1 were tested in kidney lysates and the results compared to BMV109. The sulfoxonium ylide probes (and BMV109) were each added with increasing probe concentrations of 0.1 µM, 0.5 µM, 1 µM and 5 µM for 20 minutes.

cathepsin X [5] = target: cathepsin X (Homo sapiens, UniProt Q9UBR2); experiment: Probe labeling of live MDA-MB-231 HM cells, in-gel fluorescence; type: cell-based; design: cathepsin X in a human breast cancer line known to express very low levels of cathepsin S; host or cells: MDA-MB-231 HM; conditions: 0.1-5 µM, overnight incubation
Chain of cathepsin X (Homo sapiens, UniProt Q9UBR2) (Q9UBR2 62-303): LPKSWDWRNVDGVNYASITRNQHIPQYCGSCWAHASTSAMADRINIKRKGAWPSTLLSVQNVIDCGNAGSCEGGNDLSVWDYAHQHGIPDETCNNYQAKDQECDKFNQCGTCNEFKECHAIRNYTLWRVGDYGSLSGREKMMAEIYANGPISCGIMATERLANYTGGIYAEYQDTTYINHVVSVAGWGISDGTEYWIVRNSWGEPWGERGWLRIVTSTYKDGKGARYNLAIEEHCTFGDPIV
Description: (§2) AW cells or MDA-MB-231 ^HM cells were plated in 12-well plates. Where indicated, MDV-590 or vehicle was added at 10 µM from a 10 mM DMSO stock for overnight incubation. When the cell density reached 80%, the indicated probes were added at the indicated concentrations from a 1000x DMSO stock and allowed to incubate for the indicated time. Media was then removed and replaced with PBS. The cells were then scraped and transferred to tubes, and lysis and SDS-PAGE analysis were carried out as above, except skipping the probe addition step.
In Example 9, the specificity of the sulfoxonium ylide probes for cathepsin X in a human breast cancer line known to express very low levels of cathepsin S, MDA-MB-231 ^HM (Chang et al., 2007) was tested, and the results compared to BMV109. The MDA-MB-231 ^HM cells also allowed to test whether the sulfoxonium ylide probes could bind to human cathepsin X (in addition to mouse cathepsin X shown previously).
The sulfoxonium ylide probes (and BMV109) were each added with increasing probe concentrations of 0.1 µM, 0.5 µM, 1 µM and 5 µM).

cathepsin X [6] = target: T1, cathepsin X; experiment: Probe labeling of RAW264.7 cell lysates, SDS-PAGE in-gel fluorescence; type: biochemical; design: protein lysates prepared from RAW264.7 cells; host or cells: RAW264.7
Description: ells were harvested by scraping, washed once with PBS, and resuspended in lysis buffer containing 50 mM citrate [pH 5.5], 0.5% CHAPS, 0.1% Triton X-100, and 4 mM DTT. Cells were incubated on ice for at least 10 minutes with intermittent vortexing followed by centrifugation ([…] at 4° C. or 5 minutes). Cleared supernatants were then transferred to a fresh tube and protein concentration was determined by BCA. Total protein (50 µg) was aliquoted into tubes in a final volume of 20 µl lysis buffer. Where indicated, JPM-OEt or MDV-590 were added from a 100x DMSO stock and incubated at 37° C. or 20 minutes prior to probe addition. The indicated concentration of probe was added from a 100x DMSO stock. Labeling was carried out at 37° C. or 20 minutes (unless otherwise indicated), and the reactions were quenched by the addition of 5x sample buffer (200 mM Tris-Cl [pH 6.8], 8% SDS, 0.04% bromophenol blue, 5% b-mercaptoethanol, and 40% glycerol). Samples were then boiled for five minutes and proteins were resolved on a 15% SDS-PAGE gel. The gels were scanned on a Typhoon 5 flatbed laser scanner at 633/670 nm excitation/emission to detect sCy5 fluorescence.
robe-labeled lysate from above (in sample buffer) was divided into input or pulldown (~50 µg total protein each). The input sample was stored at -20° C. The pulldown sample was diluted in 500 µl IP buffer (PBS [pH 7.4],[…], 1 mM EDTA). Goat anti-cathepsin X antibody (10 µl) was added along with 40 µl slurry of pre-washed Protein A/G agarose beads. Samples were rotated overnight at 4° C. Beads were then washed four times with IP buffer followed by a final wash in 0.9% NaCl. Beads were then resuspended in 2x sample buffer and boiled. The pulldown supernatants, alongside the input samples, were analysed by fluorescent SDS-PAGE as above.
In Example 3, the sulfoxonium ylide probe sCy5-Val-SY was incubated with protein lysates prepared from RAW264.7 cells, an immortalized mouse macrophage line that contains high levels of active cysteine cathepsins (Verdoes et al., 2013). Cells were lysed in citrate buffer (pH 5.5) to provide optimal conditions for cathepsin activation, and the probe was added • at 1 µM for 20 minutes • at various concentrations (0 µM, 0.01 µM, 0.05 µM, 0.1 µM, 0.5 µM or 1 µM) for 20 minutes; or • at 1 µM for varying times (0, 1, 2, 5, 10, 20, and 30 minutes).
Then the lysates were resolved by SDS-PAGE and the gel scanned for sCy5 fluorescence using a flatbed laser scanner.
The labeling profile of sCy5-Val-SY was compared to that of BMV109, the pan-cathepsin probe, by repeating the above experiment using BMV109 as the probe added at 1 µM for 20 minutes.
In Example 6, a small library of sulfoxonium ylide probes with varying amino acids in the P1 position as prepared in accordance with Example 1 was tested in RAW264.7 lysates, and compared to BMV109. Each probe was added with increasing probe concentrations of 0.01 µM, 0.05 µM, 0.1 µM, 0.5 µM, 1 µM and 5 µM for 20 minutes).

cathepsin X [7] = target: T1, cathepsin X; experiment: Probe labeling of living RAW264.7 cells, in-gel fluorescence; type: cell-based; design: protein lysates prepared from RAW264.7 cells; host or cells: RAW264.7; conditions: Example 8; 0.1-5 µM for 2 hours
Description: as §2, with “step. […]” for “step.”
In Example 8, sulfoxonium ylide probes as prepared in accordance with Example 1 were applied to live RAW264.7 cells for two hours, in order to examine the potency and permeability of the sulfoxonium ylide probe series in living cells, and the results compared to BMV109.
The sulfoxonium ylide probes (and BMV109) were each added with increasing probe concentrations of 0.1 µM, 0.5 µM, 1 µM and 5 µM for 2 hours. […]

[8] = Example 6, 0.01-5 µM for 20 minutes

T1 sequence (Q9WUU7 64-306): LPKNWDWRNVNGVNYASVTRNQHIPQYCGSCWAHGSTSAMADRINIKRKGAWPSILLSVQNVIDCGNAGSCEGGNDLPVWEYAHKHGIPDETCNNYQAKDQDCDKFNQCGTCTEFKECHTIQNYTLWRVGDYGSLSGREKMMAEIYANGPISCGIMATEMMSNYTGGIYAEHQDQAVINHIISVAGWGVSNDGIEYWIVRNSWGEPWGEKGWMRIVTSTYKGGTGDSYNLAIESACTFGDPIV

reduction in cathepsin X (cathepsin X [3]): 71%
reduction in cathepsin S (cathepsin S): 51%
Compound: CC(C)[C@H](NC(=O)OC(C)(C)C)C(=O)C=S(C)(C)=O [Boc-Val-SY, tert-butyl (S)-(1-(dimethyl(oxo)-λ^6-sulfanylidene)-4-methyl-2-oxopentan-3-yl)carbamate]

potency and specificity of labeling in kidney lysates (cathepsin X [4]): broader reactivity
cathepsins labeled in live RAW264.7 cells (cathepsin X [7]): preference for cathepsin S
Compound: CC[N+]1=C(/C=C/C=C/C=C2/N(CCCCCC(=O)NCCCC[C@H](NC(=O)OCc3ccccc3)C(=O)C=S(C)(C)=O)c3ccc(S(=O)(=O)O)cc3C2(C)C)C(C)(C)c2cc(S(=O)(=O)[O-])ccc21 [Cbz-Lys(sCy5)-SY]
cross-reactivity with cathepsin B and L in live MDA-MB-231 HM cells (cathepsin X [5]): the most cross-reactivity with cathepsin B and L
specificity of labeling in RAW264.7 lysates (cathepsin X [6]; [8]): loss of specificity, favoring cathepsin S over X and B

potency and specificity of labeling in kidney lysates (cathepsin X [4]): broader reactivity
Compound: CC[N+]1=C(/C=C/C=C/C=C2/N(CCCCCC(=O)N[C@@H](Cc3ccccc3)C(=O)C=S(C)(C)=O)c3ccc(S(=O)(=O)O)cc3C2(C)C)C(C)(C)c2cc(S(=O)(=O)[O-])ccc21 [sCy5-Phe-SY]
cathepsins labeled in live RAW264.7 cells (cathepsin X [7]): labeled cathepsin X and S to similar extents and with similar potency

competition for sCy5-Val-SY labeling by inhibitor pretreatment (cathepsin X [6]; RAW264.7 lysates pretreated with 10 µM inhibitor, then sCy5-Val-SY 1 µM 20 minutes): labeling was prevented
Compound: JPM-OEt [reference compound]

Further lines, the compound ahead of its results:

Compound: CC[N+]1=C(/C=C/C=C/C=C2\N(CCCCCC(=O)NCCCC[C@H](NC(=O)[C@H](Cc3ccccc3)NC(=O)OCc3ccccc3)C(=O)COc3c(F)c(F)c(C(=O)NCCNC(=O)C4CCN(S(=O)(=O)c5ccccc5-c5c6ccc(N7CCc8cc(S(=O)(=O)[O-])ccc87)cc6[o+]c6cc(N7CCc8cc(S(=O)(=O)O)ccc87)ccc56)CC4)c(F)c3F)c3ccc(S(=O)(=O)O)cc3C2(C)C)C(C)(C)c2cc(S(=O)(=O)[O-])ccc21 [BMV109, reference compound]
labeling of cathepsin S, B and L in tissues after in vivo administration (cathepsin X [1]): strongly labels cathepsin B and L
labeling in splenic lysates from wildtype mice (cathepsin X [2]): strongly labeled cathepsin B and to a lesser extent, cathepsin S and L

Compound: CC[N+]1=C(/C=C/C=C/C=C2/N(CCCCCC(=O)N[C@@H](CC(C)C)C(=O)C=S(C)(C)=O)c3ccc(S(=O)(=O)O)cc3C2(C)C)C(C)(C)c2cc(S(=O)(=O)[O-])ccc21 [sCy5-Leu-SY]
potency and specificity of labeling in kidney lysates (cathepsin X [4]): the most potency and specificity for cathepsin X
cathepsins labeled in live RAW264.7 cells (cathepsin X [7]): labeled cathepsin X and S to similar extents and with similar potency

Compound: CCCC[C@H](NC(=O)CCCCN1/C(=C/C=C/C=C/C2=[N+](CC)c3ccc(S(=O)(=O)[O-])cc3C2(C)C)C(C)(C)c2cc(S(=O)(=O)O)ccc21)C(=O)COC(=O)c1c(C)cccc1C [sCy5-Nle-AOMK]
labeling of cathepsin S, B and L in tissues after in vivo administration (cathepsin X [1]): Only weak labeling of cathepsin B and S was observed in the colon, but not in other tissues examined

Compound: CC[N+]1=C(/C=C/C=C/C=C2/N(CCCCCC(=O)N[C@@H](Cc3ccccc3)C(=O)N[C@H](C(=O)C=S(C)(C)=O)C(C)C)c3ccc(S(=O)(=O)O)cc3C2(C)C)C(C)(C)c2cc(S(=O)(=O)[O-])ccc21 [sCy5-Phe-Val-SY]
potency and specificity of labeling in kidney lysates (cathepsin X [4]): broader reactivity
cross-reactivity with cathepsin B and L in live MDA-MB-231 HM cells (cathepsin X [5]): the most cross-reactivity with cathepsin B and L
potency of labeling in RAW264.7 lysates (cathepsin X [6]; [8]): improved potencies for cathepsin X and S compared to BMV109
specificity of labeling in RAW264.7 lysates (cathepsin X [6]; [8]): loss of specificity
cathepsins labeled in live RAW264.7 cells (cathepsin X [7]): labeled cathepsin B and L in addition to cathepsin X and S

Compound: CC[N+]1=C(/C=C/C=C/C=C2/N(CCCCCC(=O)N[C@@H](Cc3c[nH]c4ccccc34)C(=O)C=S(C)(C)=O)c3ccc(S(=O)(=O)O)cc3C2(C)C)C(C)(C)c2cc(S(=O)(=O)[O-])ccc21 [sCy5-Trp-SY]
cathepsins labeled in live RAW264.7 cells (cathepsin X [7]): labeled cathepsin X and S to similar extents and with similar potency
